Results taken from patent publication US6794489B2, “Compositions and methods for treatment of sexual dysfunction” (Palatin Technologies, Inc., priority 1999, dated 2004).

Key:
[1] = test system: Sprague Dawley rats; assay: Induction of penile erection by intranasal administration; format: in vivo, rat; conditions: for % Rats with Penile Erection / Number of Erections/Rat/30 Minutes: intranasal
Procedure: In another series of experiments, a dosing study was conducted in rats by nasal administration of from 15 μg per kg of body weight to 1500 μg per kg of body weight, using Nasal Formulation 1. Based on penile erectile response behavior, the peptide was efficacious at all dose amounts administered, and particularly from 25 μg/kg to 75 μg/kg, with pharacologic effect observed over the range from 15 μg/kg to 1500 μg/kg. […]

[2] = test system: Sprague Dawley rats; assay: Inhibition of Compound 1-induced penile erection by melanocortin antagonist; format: in vivo, rat; conditions: 25 or 50 μg/kg nasal in Nasal Formulation 1, control groups
[3] = test system: ferrets; assay: Ferret emesis study; format: in vivo; conditions: animals out of six
Excerpt: Ferrets are a recognized model for emetic studies. The vehicle for both intravenous and intranasal administration was saline. The positive control was cisplatin, known to induce vomiting in ferrets. The data is described as the number of animals out of a group of six showing signs of vomiting.

[4] = Pharmacokinetics in rats following IV administration; format: in vivo, rat; conditions: intravenous 100 μg/kg, bioassay
[5] = test system: Female Long-Evans rats; assay: Female sexual response, bilevel chambers; format: in vivo, rat; conditions: 200 μg/kg subcutaneous
Procedure: Female Long-Evans rats (200-250 g) were house in groups of 2 to 4 depending on size in plastic cages in a colony room maintained on a reversed 12:12 hour light/dark cycle at approximately 21° C. with food and water ad libitum. The rats were ovariectomized bilaterally via lumbar incisions one week prior to preliminary tests of sexual behavior. Intact Long-Evans male rats served as stimulus males, and were sexual vigorous, initiating copulatory activity with females within 15 seconds of being placed into bilevel chambers containing female rats. Following preliminary tests of sexual behavior, females were administered subcutaneous injections of estradiol benzoate, 10 μg in 0.1 mL of sesame oil, forty-eight hours prior to testing, and progesterone, 500 μg in 0.1 mL of sesame oil, four hours prior to testing. Administration of estradiol benzoate and progesterone induced full sexual receptivity in the female rats. Female rats were placed in bilevel chambers five minutes prior to the introduction of a sexual vigorous male. […] Tests were videotaped and score subsequently for appetitive level changing during the five minute period prior to the introduction of the male, lordosis quotients and reflex magnitudes, incidents of solicitation (head-wise orientation and runaway), hops and darts, pacing (level changes per mount), female mounts and defensive responses. […]

[6] = test system: Female Long-Evans rats; assay: Female sexual response, unilevel pacing chambers; format: in vivo, rat; conditions: 200 μg/kg subcutaneous
Excerpt: Tests were videotaped and scored as in Example 13, with pacing defined as number of exits from and returns to the side with the male; and exist and return latencies following mounts, intromissions or ejaculations. FIGS. 8A, 8B, 8C and 8D show the results.

[7] = PROFILE IN RATS INTRAVENOUSLY ADMINISTERED
Excerpt: Table printed on a drawing sheet, FIG. 1
Title: PROFILE IN RATS INTRAVENOUSLY ADMINISTERED
Section band inside the table: i.v.

[8] = test system: Sprague Dawley rats; assay: Induction of penile erection by intravenous injection; conditions: for Dose resulting in equivalent penile response by intravenous injection / Efficacious dose (penile erection in 100% of animals): rats; for Efficacious dose (penile erection in 100% of animals): intravenous injection
[9] = Representative Profile in Monkeys Intravenously Delivered
Excerpt: Table printed on a drawing sheet, FIG. 2
Title: Representative Profile in Monkeys Intravenously Delivered

[10] = Profiles in Monkeys Intranasally Delivered
Excerpt: Table printed on a drawing sheet, FIG. 3
Title: Profiles in Monkeys Intranasally Delivered
First reader's note: Columns 2001, 2002 and 2003 are individual monkeys, and the last two columns are their mean and SEM; the substance name is taken from the y-axis label, printed 'Compopund 1'.

[11] = test system: men with psychogenic erectile dysfunction; conditions: subcutaneous, 0.025 to 0.157 mg/kg, cited from earlier work

Compound: CCCCC(NC(C)=O)C(=O)NC1CC(=O)NCCCCC(C(=O)O)NC(=O)C(Cc2c[nH]c3ccccc23)NC(=O)C(CCCNC(=N)N)NC(=O)C(Cc2ccccc2)NC(=O)C(Cc2c[nH]cn2)NC1=O [Compound 1, Ac-Nle-cyclo(-Asp-His-D-Phe-Arg-Trp-Lys)-OH]
- % Rats with Penile Erection ([1]; 15 μg/kg): 50%
- Number of Erections/Rat/30 Minutes ([1]; 15 μg/kg): 0.5
- % Rats with Penile Erection ([1]; 25 μg/kg): 100%
- Number of Erections/Rat/30 Minutes ([1]; 25 μg/kg): 2.0
- % Rats with Penile Erection ([1]; 37 μg/kg): 100%
- Number of Erections/Rat/30 Minutes ([1]; 37 μg/kg): 2.0
- % Rats with Penile Erection ([1]; 50 μg/kg): 100%
- Number of Erections/Rat/30 Minutes ([1]; 50 μg/kg): 2.0
- % Rats with Penile Erection ([1]; 75 μg/kg): 100%
- Number of Erections/Rat/30 Minutes ([1]; 75 μg/kg): 2.5
- % Rats with Penile Erection ([1]; 500 μg/kg): 100%
- Number of Erections/Rat/30 Minutes ([1]; 500 μg/kg): 1.5
- % Rats with Penile Erection ([1]; 1000 μg/kg): 100%
- Number of Erections/Rat/30 Minutes ([1]; 1000 μg/kg): 1.5
- % Rats with Penile Erection ([1]; 1500 μg/kg): 50%
- Number of Erections/Rat/30 Minutes ([1]; 1500 μg/kg): 0.5
- Rats with observed erections, without pre-administration of SHU9119 [2]: 100%
- Signs of vomiting (proportions) ([3]; 10 μg/kg IV): 0/6
- Signs of vomiting (proportions) ([3]; 30 μg/kg IV): 6/6
- Signs of vomiting (proportions) ([3]; 100 μg/kg IN): 0/6
- Signs of vomiting (proportions) ([3]; 100 μg/kg IV): 6/6
- Signs of vomiting (proportions) ([3]; 300 μg/kg IN): 1/6
- Signs of vomiting (proportions) ([3]; 500 μg/kg IN): 1/6
- Pharmacokinetic profile in plasma [4]: bi-phasic
- Rates of appetitive level changing, pacing, lordosis, female mounts or rejection responses [5]: without affecting
- Number of solicitations ([5]; fully and partially primed female rats): increased the number of solicitations significantly
- Ejaculation return latencies [6]: increase
- Lordosis or defensive responding [6]: no effect
- Number of exits or returns made by the females [6]: no significant effect
- Number of solicitations, hops and darts, and female mounts compared to controls ([6]; fully primed): increased the number of solicitations, hops and darts, and female mounts significantly
- α-phase [7]: 5 min
- β-phase [7]: 25 min
- % Rats with Penile Erection ([8]; intravenous, 0.5 μg/kg): 50%
- Number of Erections/Rat/30 Minutes ([8]; intravenous, 0.5 μg/kg): 0.5
- % Rats with Penile Erection ([8]; intravenous, 1.0 μg/kg): 100%
- Number of Erections/Rat/30 Minutes ([8]; intravenous, 1.0 μg/kg): 1.0
- % Rats with Penile Erection ([8]; intravenous, 2.0 μg/kg): 100%
- Number of Erections/Rat/30 Minutes ([8]; intravenous, 2.0 μg/kg): 2.0
- Rats having multiple erections ([8]; intravenous, 2 μg/kg, 30 minutes observation period): approximately 50%
- % Rats with Penile Erection ([8]; intravenous, 5.0 μg/kg): 100%
- Number of Erections/Rat/30 Minutes ([8]; intravenous, 5.0 μg/kg): 1.8
- % Rats with Penile Erection ([8]; intravenous, 10.0 μg/kg): 100%
- Number of Erections/Rat/30 Minutes ([8]; intravenous, 10.0 μg/kg): 2.5
- Dose resulting in equivalent penile response by intravenous injection [8]: 2 μg/kg of body weight
- Efficacious dose (penile erection in 100% of animals) [8]: 0.001 mg/kg

Compound: CCCC[C@H](NC(C)=O)C(=O)N[C@H]1CC(=O)NCCCC[C@@H](C(=O)O)NC(=O)[C@H](Cc2c[nH]c3ccccc23)NC(=O)[C@H](CCCNC(=N)N)NC(=O)[C@@H](Cc2ccccc2)NC(=O)[C@H](Cc2c[nH]cn2)NC1=O [Compopund 1]
- AUC [9]: 3730.0 ng·min/mL
- Cmax [9]: 1149.0 ng/mL
- Tmax [9]: 0 h
- %Bioavailability [10]: 0.73%
- AUC [10]: 27.16 ng·min/mL
- Cmax [10]: 0.38 ng/mL
- Tmax [10]: 50.00 min

Compound: Melanotan-II [reference compound]
- % Rats with Penile Erection ([1]; 100 μg/kg): 25%
- Number of Erections/Rat/30 Minutes ([1]; 100 μg/kg): 0.25
- % Rats with Penile Erection ([1]; 500 μg/kg): 100%
- Number of Erections/Rat/30 Minutes ([1]; 500 μg/kg): 1.0
- Period of the penile erection response after nasal administration ([1]; rats, 30 minute observation in ten-minute periods): 2nd and 3rd ten-minute period
- Treated men developing clinically apparent erections [11]: 8 of 10
- Mean duration of tip rigidity greater than 80% ([11]; placebo 3.0 minutes): 38 min
- % Rats with Penile Erection ([8]; intravenous, 10.0 μg/kg): 17%
- Number of Erections/Rat/30 Minutes ([8]; intravenous, 10.0 μg/kg): 0.3
- % Rats with Penile Erection ([8]; intravenous, 100.0 μg/kg): 75%
- Number of Erections/Rat/30 Minutes ([8]; intravenous, 100.0 μg/kg): 1.0
- Optimal efficacious dose intravenously ([8]; rat model of penile erection): 100 μg/kg of body weight
- Dose resulting in equivalent penile response by intravenous injection [8]: 100 μg/kg of body weight
- Efficacious dose (penile erection in 100% of animals) [8]: ≥ 0.1 mg/kg
